Target: T1, CCR2 (Homo sapiens, UniProt P41597)
T1 construct: expressed in transfected cells
Assay: CCR2 calcium activity assay on FLIPR Tetra in HEK-Gqi5 cells stably expressing CCR2
Type: cell-based

T1 sequence (P41597 whole entry, species assumed): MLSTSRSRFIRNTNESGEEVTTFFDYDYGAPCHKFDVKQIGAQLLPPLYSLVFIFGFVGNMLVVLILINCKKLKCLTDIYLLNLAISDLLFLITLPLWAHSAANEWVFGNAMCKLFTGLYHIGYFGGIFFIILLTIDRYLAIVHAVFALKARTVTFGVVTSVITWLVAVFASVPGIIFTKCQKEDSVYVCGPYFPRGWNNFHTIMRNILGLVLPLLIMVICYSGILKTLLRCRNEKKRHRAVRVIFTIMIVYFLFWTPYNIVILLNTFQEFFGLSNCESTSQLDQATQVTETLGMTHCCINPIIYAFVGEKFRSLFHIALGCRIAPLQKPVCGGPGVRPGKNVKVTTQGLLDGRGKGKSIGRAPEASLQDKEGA

| Compound | CCR2 % ANTAG | IC50 |
| --- | --- | --- |
| Cn1sc(=O)c2cc(S(=O)(=O)Nc3ccccc3NS(=O)(=O)c3cc(Cl)cc(Cl)c3)ccc21 [N-(2-{[(3,5-dichlorophenyl)sulfonyl]amino}phenyl)-1-methyl-3-oxo-1,3-dihydro-2,1-benzisothiazole-5-sulfonamide] | 95% | 2570 nM |
| Cn1sc(=O)c2cc(S(=O)(=O)Nc3ccc(Cl)c(Cl)c3)ccc21 [N-(3,4-dichlorophenyl)-1-methyl-3-oxo-1,3-dihydro-2,1-benzisothiazole-5-sulfonamide] | 94.08% | 1180 nM |
| Cn1sc(=O)c2cc(S(=O)(=O)Nc3cc(Cl)ccc3NCc3cccs3)ccc21 [N-{5-chloro-2-[(2-thienylmethyl)amino]phenyl}-1-methyl-3-oxo-1,3-dihydro-2,1-benzisothiazole-5-sulfonamide] | 83% | 1080 nM |
| Cn1sc(=O)c2cc(S(=O)(=O)Nc3ccccc3NS(=O)(=O)c3ccccc3Cl)ccc21 [N-(2-{[(2-chlorophenyl)sulfonyl]amino}phenyl)-1-methyl-3-oxo-1,3-dihydro-2,1-benzisothiazole-5-sulfonamide] | 84% | 1350 nM |
| Cn1sc(=O)c2cc(S(=O)(=O)Nc3cccnc3NS(=O)(=O)c3cccs3)ccc21 [1-methyl-3-oxo-N-{2-[(2-thienylsulfonyl)amino]pyridin-3-yl}-1,3-dihydro-2,1-benzisothiazole-5-sulfonamide] | 83% | 1910 nM |
| Cn1sc(=O)c2cc(S(=O)(=O)Nc3cc(Cl)ccc3NS(=O)(=O)c3cccs3)ccc21 [N-{5-chloro-2-[(2-thienylsulfonyl)amino]phenyl}-1-methyl-3-oxo-1,3-dihydro-2,1-benzisothiazole-5-sulfonamide] | 98% | 234 nM |
| N,N-dimethyl-N-(4-{[(1-methyl-3-oxo-1,3-dihydro-2,1-benzisothiazol-5-yl)carbonyl]amino}benzyl)tetrahydro-2H-pyran-4-aminium | 85% | 1190 nM |

Other lines, results leading:

| CCR2 % ANTAG | IC50 | Compound |
| --- | --- | --- |
| 67% | 2450 nM | COc1ccc(S(=O)(=O)Nc2ccccc2NS(=O)(=O)c2ccc3c(c2)c(=O)sn3C)cc1 [N-(2-{[(4-methoxyphenyl)sulfonyl]amino}phenyl)-1-methyl-3-oxo-1,3-dihydro-2,1-benzisothiazole-5-sulfonamide] |
| 61% |  | Cn1sc(=O)c2cc(S(=O)(=O)Nc3ccccc3CNS(=O)(=O)c3cccs3)ccc21 [1-methyl-3-oxo-N-(2-{[(2-thienylsulfonyl)amino]methyl}phenyl)-1,3-dihydro-2,1-benzisothiazole-5-sulfonamide] |
| 88% | 240 nM | Cn1sc(=O)c2cc(S(=O)(=O)Nc3cc(Cl)ccc3NS(=O)(=O)c3ccc(Cl)c(C(F)(F)F)c3)ccc21 [N-[5-chloro-2-({[4-chloro-3-(trifluoromethyl)phenyl]sulfonyl}amino)phenyl]-1-methyl-3-oxo-1,3-dihydro-2,1-benzisothiazole-5-sulfonamide] |
| 86% |  | Cc1cccc(NS(=O)(=O)c2ccc3c(c2)c(=O)sn3C)c1NS(=O)(=O)c1cccs1 [1-methyl-N-{3-methyl-2-[(2-thienylsulfonyl)amino]phenyl}-3-oxo-1,3-dihydro-2,1-benzisothiazole-5-sulfonamide] |
| 22% |  | Cn1sc(=O)c2cc(S(=O)(=O)NC3CCN(S(=O)(=O)c4cccs4)C3)ccc21 (stereo not shown) [1-methyl-3-oxo-N-[1-(2-thienylsulfonyl)pyrrolidin-3-yl]-1,3-dihydro-2,1-benzisothiazole-5-sulfonamide] |
| 87% | 886 nM | CC(C)c1ccc(NS(=O)(=O)c2ccc3c(c2)c(=O)sn3C)c(NS(=O)(=O)c2cccs2)c1 [N-{4-isopropyl-2-[(2-thienylsulfonyl)amino]phenyl}-1-methyl-3-oxo-1,3-dihydro-2,1-benzisothiazole-5-sulfonamide] |
| 100% | 412 nM | Cn1sc(=O)c2cc(S(=O)(=O)Nc3ccccc3NS(=O)(=O)c3ccc(Cl)c(C(F)(F)F)c3)ccc21 [N-[2-({[4-chloro-3-(trifluoromethyl)phenyl]sulfonyl}amino)phenyl]-1-methyl-3-oxo-1,3-dihydro-2,1-benzisothiazole-5-sulfonamide] |
| 84% | 2790 nM | CCOc1ccc(S(=O)(=O)Nc2ccc(Cl)cc2NS(=O)(=O)c2ccc3c(c2)c(=O)sn3C)cc1 [N-(5-chloro-2-{[(4-ethoxyphenyl)sulfonyl]amino}phenyl)-1-methyl-3-oxo-1,3-dihydro-2,1-benzisothiazole-5-sulfonamide] |
| 60% | 2480 nM | Cn1cc(S(=O)(=O)Nc2ccccc2NS(=O)(=O)c2ccc3c(c2)c(=O)sn3C)cn1 [1-methyl-N-(2-{[(1-methyl-1H-pyrazol-4-yl)sulfonyl]amino}phenyl)-3-oxo-1,3-dihydro-2,1-benzisothiazole-5-sulfonamide] |
| 80% | 1850 nM | Cc1cc(NS(=O)(=O)c2ccc3c(c2)c(=O)sn3C)c(C)cc1Cl [N-(4-chloro-2,5-dimethylphenyl)-1-methyl-3-oxo-1,3-dihydro-2,1-benzisothiazole-5-sulfonamide] |
